Laboratory results taken from patent US9091692B2, “Fluorescent dye” (SHINICHIRO ISOBE, priority 2011, dated 2015).

Experiment: Measurement of a fluorescence spectrum (absorption and fluorescent wavelength, fluorescence intensity)
Assay type: physicochemical
Details: dissolved in DMSO, concentration 10^-4 M
Protocol: Measurement of a Fluorescence Spectrum
Each of the synthesized fluorescent dyes was dissolved in a solvent by using DMSO to prepare a solution having a concentration of 10^−4 M, so that the measurements of fluorescent wavelength and absorption wavelength were performed.

| Compound | Absorption wavelength [nm] | Fluorescence wavelength [nm] | Stokes shift [nm] |
| --- | --- | --- | --- |
| O=C(CCCCC[n+]1cccc(/C=C/c2nc(-c3ccccc3)c3nsnc3c2-c2ccccc2)c1)ON1C(=O)CCC1=O [Synthetic Example 1] | 411 | 531 | 120 |
| COc1ccc(-c2nc(/C=C/c3ccc[n+](CCCCCC(=O)ON4C(=O)CCC4=O)c3)c(-c3ccc(OC)cc3)c3nonc23)cc1 [Synthetic Example 2] | 437 | 608 | 171 |
| Cc1csc(-c2c(-c3ccc[n+](CCC(=O)ON4C(=O)CCC4=O)c3)nc(-c3ccc(C)s3)c3nonc23)c1 [Synthetic Example 10] | 531 | 650 | 119 |
| Cc1csc(-c2c(-c3cc[n+](CCCCCC(=O)ON4C(=O)CCC4=O)cc3)nc(-c3ccc(C)s3)c3nonc23)c1 [Synthetic Example 11, active ester of 4,7-di(methylthienyl)-1,2,5-oxadiazolopyridine-6-(4-pyridinium)] | 528 | 648 | 120 |
| O=C(CCCCC[n+]1cccc(-c2nc(-c3ccccc3)c3nonc3c2-c2ccccc2)c1)ON1C(=O)CCC1=O [Synthetic Example 12] | 382 | 513 | 131 |
| O=C(CCCCC[n+]1ccc(-c2nc(-c3ccc(-c4ccc5ccccc5c4)s3)c3nonc3c2-c2cc(-c3ccc4ccccc4c3)cs2)cc1)ON1C(=O)CCC1=O [Synthetic Example 16, active ester of 4,7-di[(2-naphthyl)thienyl]-1,2,5-oxadiazolopyridine-6-(4-pyridinium)] | 516 | 682 | 166 |
| O=C(CCCCC[n+]1ccc(/C=C/c2nc(-c3ccc(-c4cccc5ccccc45)s3)c3nonc3c2-c2ccc(-c3cccc4ccccc34)s2)cc1)ON1C(=O)CCC1=O [Synthetic Example 18, active ester of 4,7-di[(1-naphthyl)thienyl]-1,2,5-oxadiazolopyridine-6-(4-vinylpyridinium)] | 535 | 700 | 165 |
| O=C(CCCCC[n+]1ccc(-c2nc(-c3ccc(-c4ccc(-c5ccccc5)cc4)s3)c3nonc3c2-c2cc(-c3ccc(-c4ccccc4)cc3)cs2)cc1)ON1C(=O)CCC1=O.[Br-] [Synthetic Example 20, active ester of 4,7-di[(2-biphenyl)thienyl]-1,2,5-oxadiazolopyridine-6-(4-pyridinium)] | 529 | 715 | 186 |
| active ester of 4,7-di(bromothienyl)-1,2,5-oxadiazolopyridine-6-(4-pyridine) [Synthetic Example 13] | 516 | 698 | 182 |
| active ester of 4,7-di(methylthienyl)-1,2,5-oxadiazolopyridine-6-(3-pyridinium) [Synthetic Example 9] | 539 | 660 | 121 |
| active ester of 4,7-di[(1-naphthyl)thienyl]-1,2,5-oxadiazolopyridine-6-(4-pyridinium) [Synthetic Example 15] | 532 | 722 | 190 |
| active ester of 4,7-di[(2-biphenyl)thienyl]-1,2,5-oxadiazolopyridine-6-(4-vinylpyridinium) [Synthetic Example 21] | 404 | 527 | 123 |
| active ester of 4,7-di[(2-bromo)thienyl]-1,2,5-oxadiazolopyridine-6-(4-vinylpyridinium) [Synthetic Example 17] | 509 | 688 | 179 |
| active ester of 4,7-di[(2-naphthyl)thienyl]-1,2,5-oxadiazolopyridine-6-(4-vinylpyridinium) [Synthetic Example 19] | 533 | 730 | 197 |
| active ester of 4,7-di[(2-phenyl)thienyl]-1,2,5-oxadiazolopyridine-6-(4-pyridinium) [Synthetic Example 14] | 500 | 710 | 210 |

Same assay, conditions: fluorescence intensity of Synthetic Example 22 was 1.0

| Compound | Fluorescence intensity relative to Synthetic Example 22 |
| --- | --- |
| O=C(CCCCC[n+]1cccc(/C=C/c2nc(-c3ccccc3)c3nsnc3c2-c2ccccc2)c1)ON1C(=O)CCC1=O [Synthetic Example 1] | 11.2 |
| O=C(CCCCC[n+]1cccc(-c2nc(-c3ccccc3)c3nonc3c2-c2ccccc2)c1)ON1C(=O)CCC1=O [Synthetic Example 12] | 6.0 |
| active ester of 4,7-diphenyl-1,2,5-oxadiazolopyridine ethyl ester [Synthetic Example 22, reference compound] | 1.0 |

Experiment: Direct solubility of the fluorescent dye in water
Assay type: physicochemical
Details: not given
Text: The fluorescent dyes obtained in Synthetic Examples 1 to 21 were each directly soluble in water. […] A stokes shift of 100 nm or more was obtained in all the synthesized fluorescent dyes. An absorption wavelength of 400 to 450 nm was obtained in the 4,7-diphenyl whereas an absorption wavelength of 500 nm or more and a fluorescence wavelength of 600 nm or more were obtained in the 4,7-thienyl. When the fluorescence intensity of Synthetic Example 22 was 1.0, a very high fluorescence intensity as much as 11.2 was obtained in Synthetic Example 1 and a very high fluorescence intensity as much as 6.0 was obtained in Synthetic Example 12.

| Compound | Direct solubility in water |
| --- | --- |
| active ester of 4,7-diphenyl-1,2,5-oxadiazolopyridine ethyl ester [Synthetic Example 22, reference compound] | could not be directly dissolved in water |
